# Reference: patent publication US20220023386A1, “METHOD FOR THE TREATMENT OR PREVENTION OF OSTEOARTHRITIS” (Chondropeptix B.V., priority 2016, published 2022)
# Legend:
# Test in all cases: Expression of OA chondrocyte phenotype marker genes by RT-qPCR after peptide exposure
# Type in all cases: cell-based, human
# [1] = tested on: OA articular chondrocytes; parameters: key to ADAMTS5 expression: [+] denotes a significantly increased expression of chondrogenic marker BAPX1/NKX3.2 or a decreased expression of OA chondrocyte phenotypic markers ALP, MMP13, ADAMTS5, COX2, COL10A and RUNX2 in OA articular chondrocytes, in comparison to untreated OA articular chondrocytes.; [−] denotes the absence of a significant effort or a significantly decreased expression of chondrogenic marker BAPX1/NKX3.2 or an increased expression of OA chondrocyte phenotypic markers ALP, MMP13, ADAMTS5, COX2, COL10A and RUNX2 in OA articular chondrocytes, in comparison to untreated OA articular chondrocytes; details: Table 3, N- and C-terminally truncated peptides; vs untreated OA articular chondrocytes
# [2] = tested on: OA articular chondrocytes; parameters: key: [+] denotes a significantly increased expression of chondrogenic marker BAPX1/NKX3.2 or a decreased expression of OA chondrocyte phenotypic markers ALP, MMP13, ADAMTS5, COX2, COL10A and RUNX2 in OA articular chondrocytes, in comparison to untreated OA articular chondrocytes.; [−] denotes the absence of a significant effort or a significantly decreased expression of chondrogenic marker BAPX1/NKX3.2 or an increased expression of OA chondrocyte phenotypic markers ALP, MMP13, ADAMTS5, COX2, COL10A and RUNX2 in OA articular chondrocytes, in comparison to untreated OA articular chondrocytes; details: Table 2 (FIGS. 2-8), peptide 10 nM, 24 hours, vs untreated OA articular chondrocytes
# Procedure: (§1) The action of 20-mer peptides (10 nM) of SEQ ID NO: 2-15 (peptides with 1 amino acids intervals (19 amino acid overlap)) and SEQ ID NO:49 on the expression of the indicated genes was determined on a validated pool of passage 2 OA human articular chondrocytes (n=18) and compared to full-length recombinant BMP-7 (1 nM). Samples were harvested after 24 hours and analyzed for indicated genes by RT-qPCR (corrected for 28S rRNA expression and relative to control conditions (no peptide exposure)). In the graphs, numbers on the x-axis represent individual peptides according to their SEQ ID NO:, error bars represent mean±SEM, statistical differences were calculated (one-way ANOVA with bonferroni correction) to control condition. *=p<0.05 lower than control condition for COL10A1, ALP, RUNX2, COX-2, MMP13 and ADAMTS5 and higher than control condition for BAPX1/NKX3.2. Random peptide is a peptide according to SEQ ID NO: 49 with amino acid sequence […].
# [3] = tested on: OA articular chondrocytes; parameters: key: [+] denotes a significantly increased expression of chondrogenic marker BAPX1/NKX3.2 or a decreased expression of OA chondrocyte phenotypic markers ALP, MMP13, ADAMTS5, COX2, COL10A and RUNX2 in OA articular chondrocytes, in comparison to untreated OA articular chondrocytes.; [−] denotes the absence of a significant effort or a significantly decreased expression of chondrogenic marker BAPX1/NKX3.2 or an increased expression of OA chondrocyte phenotypic markers ALP, MMP13, ADAMTS5, COX2, COL10A and RUNX2 in OA articular chondrocytes, in comparison to untreated OA articular chondrocytes; details: vs untreated OA articular chondrocytes
# [4] = tested on: OA articular chondrocytes; parameters: key: [—] denotes the absence of a significant effect or a significantly decreased expression of chondrogenic marker BAPX1/NKX3.2 or an increased expression of OA chondrocyte phenotypic markers ALP, MMP13, ADAMTS5, COX2, COL10A and RUNX2 in OA articular chondrocytes, in comparison to untreated OA articular chondrocyts; details: Table 1, 20-mer peptides with native cysteines; vs untreated OA articular chondrocytes
# Procedure: as §1
# [5] = tested on: OA articular chondrocytes; parameters: key: [—] denotes the absence of a significant effect or a significantly decreased expression of chondrogenic marker BAPX1/NKX3.2 or an increased expression of OA chondrocyte phenotypic markers ALP, MMP13, ADAMTS5, COX2, COL10A and RUNX2 in OA articular chondrocytes, in comparison to untreated OA articular chondrocyts; details: Table 1, 20-mer peptides with native cysteines; vs untreated OA articular chondrocytes; remark: listed apart in the source
# [6] = Table 3, N- and C-terminally truncated peptides
Substance,ADAMTS5 expression [1],"ALP expression [3, 6]","BAPX1/NKX3.2 expression [3, 6]","COL10A expression [3, 6]","COX-2 expression [3, 6]","RUNX2 expression [3, 6]","MMP13 expression [3, 6]",other results
16 (YSEGESAFPLNS; homo sapiens) [compound 16],+,+,+,+,+,+,,"ADAMTS5 expression [2]: +; ALP expression [2]: +; BAPX1/NKX3.2 expression [2]: +; COL10A expression [2]: +; COX-2 expression [2]: +; RUNX2 expression [2]: +; MMP13 expression ([3]; Table 2 (FIGS. 2-8), peptide 10 nM, 24 hours): +"
22 (AAYYSEGESAFPLNS; homo sapiens) [compound 22],+,+,+,+,+,+,+,
23 (AYYSEGESAFPLNS; homo sapiens) [compound 23],+,+,+,+,+,+,+,
24 (YYSEGESAFPLNS; homo sapiens) [compound 24],+,+,+,+,+,+,+,
25 (YSEGESAFPLNS; homo sapiens) [compound 25],+,+,+,+,+,+,+,
26 (YSEGESAFPLNSY; homo sapiens) [compound 26],+,+,+,+,+,+,+,
27 (YSEGESAFPLNSYM; homo sapiens) [compound 27],+,+,+,+,+,+,+,
28 (YSEGESAFPLNSYMN; homo sapiens) [compound 28],+,+,+,+,+,+,+,
29 (YSEGESAFPLNSYMNA; homo sapiens) [compound 29],+,+,+,+,+,+,+,
30 (YSEGESAFPLNSYMNAT; homo sapiens) [compound 30],+,+,+,+,+,+,+,
31 (YSEGESAFPLNSYMNATN; homo sapiens) [compound 31],+,+,+,+,+,+,+,
32 (YSEGESAFPLNSYMNATNH; homo sapiens) [compound 32],+,+,+,+,+,+,+,
33 (YSEGESAFPLNSYMNATNHA; homo sapiens) [compound 33],+,+,+,+,+,+,+,
34 (APEGYAAYYSEGESAFPLNSYMNATNHA; homo sapiens) [compound 34],+,+,+,+,+,+,+,
35 (PEGYAAYYSEGESAFPLNSYMNATNHA; homo sapiens) [compound 35],+,+,+,+,+,+,+,
36 (EGYAAYYSEGESAFPLNSYMNATNHA; homo sapiens) [compound 36],+,+,+,+,+,+,+,
38 (EALRMANVAENSSSDQRQAC; homo sapiens) [compound 38],,,,,,,,ADAMTS5 expression [4]: —; ALP expression [5]: —; BAPX1/NKX3.2 expression [5]: —; COL10A expression [5]: —; COX-2 expression [5]: —; MMP13 expression [5]: —; RUNX2 expression [5]: —
39 (ACKKHELYVSFRDLGWQDWI; homo sapiens) [compound 39],,,,,,,,ADAMTS5 expression [4]: —; ALP expression [5]: —; BAPX1/NKX3.2 expression [5]: —; COL10A expression [5]: —; COX-2 expression [5]: —; MMP13 expression [5]: —; RUNX2 expression [5]: —
40 (WIIAPEGYAAYYCEGECAFP; homo sapiens) [compound 40],,,,,,,,ADAMTS5 expression [4]: —; ALP expression [5]: —; BAPX1/NKX3.2 expression [5]: —; COL10A expression [5]: —; COX-2 expression [5]: —; MMP13 expression [5]: —; RUNX2 expression [5]: —
41 (FPLNSYMNATNHAIVQTLVH; homo sapiens) [compound 41],,,,,,,,ADAMTS5 expression [4]: —; ALP expression [5]: —; BAPX1/NKX3.2 expression [5]: —; COL10A expression [5]: —; COX-2 expression [5]: —; MMP13 expression [5]: —; RUNX2 expression [5]: —
42 (VHFINPETVPKPCCAPTQLN; homo sapiens) [compound 42],,,,,,,,ADAMTS5 expression [4]: —; ALP expression [5]: —; BAPX1/NKX3.2 expression [5]: —; COL10A expression [5]: —; COX-2 expression [5]: —; MMP13 expression [5]: —; RUNX2 expression [5]: —
